These results are taken from patent publication US10005767B2, “Compositions and methods for inhibition of the JAK pathway” (Rigel Pharmaceuticals, Inc., priority 2009, dated 2018).

Where a name gives a salt, the structure may show the parent alone. A value given as a limit tells only on which side of the number the result lay.

The first test deals with human primary T-cells, IL-2 stimulated proliferation (JAK-1 and JAK-3 dependent; reported as JAK3 activity). Description: Human primary T-cell proliferation stimulated by IL-2 (Example 3). The note with it: Homo sapiens, T-cell, tested under conditions described in Example 3 (IL-2 stimulated human primary T-cell proliferation); read-out: ability to inhibit JAK3 activity, IC50 range (Table V). The class given is cell-based. The source says: The activity of the compounds described herein can further be characterized by assaying the effect of the 2,4-pyrimidinediamine compounds described herein on the proliferative response of primary human T-cells. In this assay, primary human T-cells derived from peripheral blood and pre-activated through stimulation of the T-cell receptor and CD28, proliferate in culture in response to the cytokine Interleukin-2 (IL-2). This proliferative response is dependent on the activation of JAK1 and JAK3 tyrosine kinases, which phosphorylate and activate the transcription factor Stat-5. The primary human T-cells are incubated with the 2,4-pyrimidinediamine compounds in the presence of IL-2 for 72 hours, and at the assay endpoint intracellular ATP concentrations are measured to assess cell viability. A reduction in cell proliferation compared to control conditions is indicative of inhibition of the JAK kinase pathway.
Primary human T-cells derived from peripheral blood and pre-activated through stimulation of the T-cell receptor and CD28, proliferate in vitro in response to the cytokine Interleukin-2 (IL-2). This proliferative response is dependent on the activation of JAK-1 and JAK-3 tyrosine kinases, which phosphorylate and activate the transcription factor Stat-5.
Human primary T cells were prepared as follows. […] The lymphocytes at the serum: ficoll interface were recovered and washed twice with 5 volumes of PBS. […] The primary T-cells were stimulated for 3-4 days, then transferred to a fresh flask and maintained in RPMI with 10% FBS and 40 U/mL IL-2.
The day prior to the assay set up, primary T-cells were centrifuged and resuspended in fresh RPMI with 10% FBS but without IL-2 and starved overnight. For the assay, the primary T-cells were centrifuged and resuspended Yssel's medium at 2×10^6 cells/mL. 50 μL of cell suspension containing 80 U/mL IL-2 was added to each well of a flat bottom 96 well black plate. For the unstimulated control, IL-2 was omitted from the last column on the plate. […] 50 μL of 2× compound was added per well in duplicate and the cells were allowed to proliferate for 72 hours at 37° C.
Proliferation was measured using CellTiter-Glo® Luminescent Cell Viability Assay (Promega), which determines the number of viable cells in culture based on quantitation of the ATP present, as an indicator of metabolically active cells. The substrate was thawed and allowed to come to ambient temperature. After mixing the Cell Titer-Glo reagent and diluent together, 100 μL was added to each well. The plates were mixed on an orbital shaker for two minutes to induce lysis and incubated at ambient temperature for an additional ten minutes to allow the signal to equilibrate.
The compound designations in Table V are consistent with those of Tables I-IV above.
In the case of `Cc1cnc(Nc2cccc(OC(F)(F)F)c2)nc1Nc1ccc2oc(=O)[nH]c2c1` [Compound I-106, N4-(benzoxazolin-2-on-5-yl)-N2-(3-trifluoromethoxyphenyl)-5-methylpyrimidine-2,4-diamine trifluoroacetate salt], the IC50 – broadly, the concentration that inhibits the measured activity by half – is < 500 nM. For `Cc1cnc(Nc2ccc(NC3CC4CCC(C3)N4C)nc2)nc1Nc1ccc2oc(=O)[nH]c2c1` (centres unmarked) [II-37, N4-(benzo[d]oxazol-2(3H)-on-5-yl)-N2-[2-(8-methyl-8-aza-bicyclo[3.2.1]oct-3-yl)aminopyridin-5-yl]-5-methylpyrimidine-2,4-diamine], the IC50 fell in the range of 500 to 5000 nM.

As for `Cc1cnc(Nc2ccc(N3CCC(NCC4CC4)C3)nc2)nc1Nc1ccc2oc(=O)[nH]c2c1` (centres unmarked) [II-94, 5-(2-(6-(3-(cyclopropylmethylamino)pyrrolidin-1-yl)pyridin-3-ylamino)-5-methylpyrimidin-4-ylamino)benzo[d]oxazol-2(3H)-one], the half-maximal inhibitory concentration (IC50) was < 500 nM. Regarding `CNC(=O)c1ccc(Nc2ncc(C)c(Nc3ccc4oc(=O)[nH]c4c3)n2)cc1` [Compound I-133, N-Methyl-4-[5-methyl-4-(2-oxo-2,3-dihydro-benzooxazol-5-ylamino)-pyrimidin-2-ylamino]-benzamide], the half-inhibitory concentration (IC50) is < 500 nM. In the case of `Cc1cnc(Nc2cnc(N3CC4CC3CN4C(=O)OC(C)(C)C)c(F)c2)nc1Nc1ccc2oc(=O)[nH]c2c1` (centres unmarked) [II-49, 5-{3-Fluoro-5-[5-methyl-4-(2-oxo-2,3-dihydro-benzooxazol-5-ylamino)-pyrimidin-2-ylamino]-pyridin-2-yl}-2,5-diaza-bicyclo[2.2.1]heptane-2-carboxylic acid tert-butyl ester], the half-inhibitory concentration (IC50) is < 500 nM. Consider `Cc1cnc(Nc2cc(C)c(F)c(C)c2)nc1Nc1cc(F)c2oc(=O)[nH]c2c1` [Compound I-490, 7-fluoro-5-(2-(4-fluoro-3,5-dimethylphenylamino)-5-methylpyrimidin-4-ylamino)benzo[d]oxazol-2(3H)-one], for which the concentration for half-maximal inhibition (IC50) was < 500 nM. Regarding `Cc1cnc(Nc2cc(C(C)NC3CCC3)cc(C(F)(F)F)c2)nc1Nc1ccc2oc(=O)[nH]c2c1` (centres unmarked) [Compound I-465, 5-(2-(3-(1-(cyclobutylamino)ethyl)-5-(trifluoromethyl)phenylamino)-5-methylpyrimidin-4-ylamino)benzo[d]oxazol-2(3H)-one], the half-inhibitory concentration (IC50) was < 500 nM. Take `Cc1cnc(Nc2ccc(F)cc2)nc1Nc1ccc2oc(=O)[nH]c2c1` [Compound I-470, 5-[2-(4-Fluoro-phenylamino)-5-methyl-pyrimidin-4-ylamino]-3H-benzooxazol-2-one]: the IC50 was < 500 nM. `Cc1ccc(Nc2ncc(C)c(Nc3ccc4oc(=O)[nH]c4c3)n2)cc1-c1ccncc1` [Compound I-443, 5-(5-methyl-2-(4-methyl-3-(pyridin-4-yl)phenylamino)pyrimidin-4-ylamino)benzo[d]oxazol-2(3H)-one]: the 50% inhibitory concentration (IC50) was < 500 nM.

Regarding `Cc1cnc(Nc2cnc(N3CC4CC3CN4)c(F)c2)nc1Nc1ccc2oc(=O)[nH]c2c1` (centres unmarked) [II-51, 5-{2-[6-(2,5-Diaza-bicyclo[2.2.1]hept-2-yl)-5-fluoro-pyridin-3-ylamino]-5-methyl-pyrimidin-4-ylamino}-3H-benzooxazol-2-one], the IC50 was < 500 nM. As for `COc1cc(C)cc(Nc2ncc(C)c(Nc3ccc4oc(=O)[nH]c4c3)n2)c1` [Compound I-259, 5-(2-(3-methoxy-5-methylphenylamino)-5-methylpyrimidin-4-ylamino)benzo[d]oxazol-2(3H)-one], the concentration for half-maximal inhibition (IC50) was < 500 nM. In the case of `Cc1cnc(Nc2ccc(OCCN3CCOCC3)cc2)nc1Nc1ccc2oc(=O)[nH]c2c1` [Compound I-192, 5-{5-Methyl-2-[4-(2-morpholin-4-yl-ethoxy)-phenylamino]-pyrimidin-4-ylamino}-3H-benzooxazol-2-one], the IC50 was < 500 nM. For the molecule `Cc1cnc(Nc2ccc3[nH]c(=O)[nH]c3c2)nc1Nc1ccc2oc(=O)[nH]c2c1` [IV-29, 5-(5-methyl-2-(2-oxo-2,3-dihydro-1H-benzo[d]imidazol-5-ylamino)pyrimidin-4-ylamino)benzo[d]oxazol-2(3H)-one], the concentration for half-maximal inhibition (IC50) is < 500 nM. Turning to `Cc1cnc(Nc2ccc(C(=O)NC(C)C)cc2)nc1Nc1ccc2oc(=O)[nH]c2c1` [Compound I-139, N-Isopropyl-4-[5-methyl-4-(2-oxo-2,3-dihydro-benzooxazol-5-ylamino)-pyrimidin-2-ylamino]-benzamide], the half-maximal inhibitory concentration (IC50) was < 500 nM.

With `CC(=O)c1ccc(F)c(Nc2ncc(C)c(Nc3ccc4oc(=O)[nH]c4c3)n2)c1` [Compound I-519, 5-(2-(5-acetyl-2-fluorophenylamino)-5-methylpyrimidin-4-ylamino)benzo[d]oxazol-2(3H)-one], the IC50 was < 500 nM.

Turning to `Cc1cnc(Nc2ccc(N3CC[C@@H](N(C)C)C3)nc2)nc1Nc1ccc2oc(=O)[nH]c2c1` [II-89, (R)-5-(2-(6-(3-(dimethylamino)pyrrolidin-1-yl)pyridin-3-ylamino)-5-methylpyrimidin-4-ylamino)benzo[d]oxazol-2(3H)-one], the IC50 was < 500 nM. Consider `Cc1cnc(Nc2ccc3c(cnn3C)c2)nc1Nc1ccc2oc(=O)[nH]c2c1` [IV-42, 5-methyl-N2-(1-methylindazol-5-yl)-N4-(2-oxo-2,3-dihydro-1,3-benzoxazol-5-yl)-2,4-pyrimidinediamine], for which the IC50 was < 500 nM.

The same test, now with this note: tested under conditions described in Example 3 (IL-2 stimulated human primary T-cell proliferation); read-out: ability to inhibit JAK3 activity, IC50 range (Table V).
For the molecule `Cc1cnc(Nc2ccc(OC(C)(C)C(N)=O)nc2)nc1Nc1ccc2oc(=O)[nH]c2c1` [II-146, N2-[2-(1-aminocarbonyl-1-methyl)ethoxypyridin-5-yl]-5-methyl-N4-(2-oxo-2,3-dihydro-1,3-benzoxazol-5-yl)-2,4-pyrimidinediamine], the 50% inhibitory concentration (IC50) is < 500 nM. `Cn1c(=O)oc2ccc(Nc3nc(Nc4ccc(S(N)(=O)=O)cc4)ncc3F)cc21` [Compound I-76, N2-((4-aminosulfonyl)phenyl)-N4-(3-methyl-2-oxo-2,3-dihydrobenzo[d]oxazol-5-yl)-5-fluoropyrimidine-2,4-diamine]: the IC50 fell in the range of 500 to 5000 nM. For `Cc1cnc(Nc2cc(F)cc(F)c2)nc1Nc1ccc2oc(=O)[nH]c2c1` [Compound I-359, N2-(3,5-difluoro)phenyl-5-methyl-N4-(2-oxo-2,3-dihydro-1,3-benzoxazol-5-yl)-2,4-pyrimidinediamine], the IC50 was < 500 nM. As for `Cc1cnc(Nc2cc(C#N)cc(OC(F)F)c2)nc1Nc1ccc2oc(=O)[nH]c2c1` [Compound I-478, N2-(3-cyano-5-difluoromethoxy)phenyl-5-methyl-N4-(2-oxo-2,3-dihydro-1,3-benzoxazol-5-yl)-2,4-pyrimidinediamine], the concentration for half-maximal inhibition (IC50) was < 500 nM. Take `Cc1cnc(Nc2cc(F)c(C(F)(F)F)c(F)c2)nc1Nc1ccc2oc(=O)[nH]c2c1` [Compound I-415, N2-(3,5-difluoro-4-trifluoromethyl)phenyl-5-methyl-N4-(2-oxo-2,3-dihydro-1,3-benzoxazol-5-yl)-2,4-pyrimidinediamine]: the concentration for half-maximal inhibition (IC50) is < 500 nM. In the case of `COc1c(C(C)C)cc(Nc2ncc(C)c(Nc3ccc4oc(=O)[nH]c4c3)n2)cc1C(C)C` [Compound I-371, N2-(3,5-diisopropyl-4-methoxy)phenyl-5-methyl-N4-(2-oxo-2,3-dihydro-1,3-benzoxazol-5-yl)-2,4-pyrimidinediamine], the IC50 was in the range of 500 to 5000 nM.

As for `COc1cc(Nc2ncc(C)c(Nc3ccc4oc(=O)[nH]c4c3)n2)ccc1C` [Compound I-351, N2-(3-methoxy-4-methyl)phenyl-5-methyl-N4-(2-oxo-2,3-dihydro-1,3-benzoxazol-5-yl)-2,4-pyrimidinediamine], the IC50 is < 500 nM.

Take `Cc1cnc(Nc2cccc(NS(C)(=O)=O)c2)nc1Nc1ccc2[nH]c(=O)oc2c1` [Compound I-102, N2-((3-methylsulfonylamino)phenyl)-N4-(2-oxo-2,3-dihydrobenzo[d]oxazol-6-yl)-5-methylpyrimidine-2,4-diamine]: the IC50 was < 500 nM. Turning to `Cc1cc(Nc2ncc(C)c(Nc3ccc4oc(=O)[nH]c4c3)n2)ccc1N1CCN2CCC1CC2` [Compound I-120, N4-(benzo[d]oxazol-2(3H)-on-5-yl)-N2-((4-(1,4-diazabicyclo[3.2.2]nonan-4-yl)-3-methyl)phenyl)-5-methylpyrimidine-2,4-diamine], the IC50 is < 500 nM.
